Assay results published in patent US20120034288A1, “COMPOSITIONS AND METHODS FOR ENHANCED ATTRACTION OF NOCTUID MOTHS” (priority 2010, published 2012).

Key:
Heliothis zea [1] = test: Heliothis zea Test 1: field trap capture, Hercon pheromone lure with/without enhancer; type: in vivo; settings: for percent increase in Heliothis zea captures: test 1, enhancer added to pheromone lure
Protocol: 12 traps were set in Yazoo City and 10 in Monroe County, Miss. From mid June through mid September trans-2, cis-6-nonadienal, a compound reported from the volatiles of corn and soybean plants was tested. Both treatments used a commercial Heliothis zea pheromone dispenser produced by Hercon. The standard was this lure only, while the enhanced traps also contained a dispenser produced in-house that contained the enhancer.

Heliothis zea [2] = test: Heliothis zea Test 2: field trap capture with added enhancer; type: in vivo; settings: Arkansas, enhancer added to pheromone lure
From the text: The percent increase in Heliothis zea captures with the addition of the soybean volatile trans-2,cis-6-nonadienal was 44%, 25%, and 54% respectively for Mississippi and Arkansas in test 1 and in Arkansas in test 2.

CC/C=C\CC/C=C/C=O [trans-2,cis-6-nonadienal, trans-2, cis-6-nonadienal]
percent increase in Heliothis zea captures (Heliothis zea [1]; Arkansas): 25%
percent increase in Heliothis zea captures (Heliothis zea [1]; Mississippi): 44%
function as an enhancer for attracting H. zea (Heliothis zea [1]; statement in words): functioned as an enhancer
percent increase in Heliothis zea captures (Heliothis zea [2]): 54%
